How the values were obtained:
human and rat TEM cells = details: cited from earlier work
[1] = Pharmacokinetics following oral or subcutaneous administration in healthy and CIA rats; details: rat, in vivo
Method: Pharmacokinetics following oral or subcutaneous administration of LrS235. Pharmacokinetics following oral or subcutaneous administration of LrS235 are conducted to determine the efficacy of ShK-235 entry into the circulation after its delivery via LrS235, an oral capsule, or subcutaneous injection, and the duration for which the peptide can be detected in the blood after a single bolus or repeated administration to rats with the CIA model of RA. The circulating levels of ShK-235 are quantified with two complementary and well-established techniques, mass spectrometry and single-cell patch-clamp, as the inventors and others have done with ShK, ShK analogs, and other Kv1.3 channel modulators^6,16,37,47-49,65. Tandem liquid chromatography triple quadrupole mass spectrometry (LC-QQQ-MS) is commonly used to rapidly detect and quantify small molecules and peptides for pharmacokinetics. As a complement, single-cell patch-clamp allows for the detection and quantification of functional peptide. This quantitative method (FIG. 9) has a low pM detection limit for the functional peptide. This technique has been validated and used to detect ShK-235 in the circulation of rats administrated the peptide via a capsule or via LrS235 (FIG. 8). […]

In the case of `CC[C@H](C)[C@@H]1NC(=O)[C@H](CO)NC(=O)[C@H](Cc2c[nH]cn2)NC(=O)[C@H](CCCCN)NC(=O)[C@@H]2CSSC[C@@H]3NC(=O)[C@H]([C@@H](C)O)NC(=O)[C@H](CCCCN)NC(=O)[C@H](CCCNC(=N)N)NC(=O)[C@H](CSSC[C@H](NC(=O)[C@H](CCCNC(=N)N)NC(=O)[C@H](CO)NC(=O)[C@H](CCCCN)NC(=O)[C@@H]4CCCN4C(=O)[C@H]([C@@H](C)CC)NC(=O)[C@H]([C@@H](C)O)NC(=O)[C@H](CC(=O)O)NC(=O)[C@H]([C@@H](C)CC)NC(=O)[C@@H](NC(=O)[C@H](CO)NC(=O)[C@@H](N)CCCNC(=N)N)CSSC[C@@H](C(=O)N[C@@H](C)C(=O)O)NC(=O)[C@H]([C@@H](C)O)NC(=O)CNC3=O)C(=O)N[C@@H]([C@@H](C)O)C(=O)N[C@@H](C)C(=O)N[C@@H](Cc3ccccc3)C(=O)N[C@@H](CCCCN)C(=O)N2)NC(=O)[C@H](Cc2ccccc2)NC(=O)[C@H](CO)NC(=O)[C@H](CC(C)C)NC(=O)[C@H](CCCNC(=N)N)NC(=O)[C@H](Cc2ccc(O)cc2)NC(=O)[C@H](CCCCN)NC1=O` [ShK-235], the “Effect on activation and function of human and rat naïve and TCM cells” value (human and rat TEM cells) is given as “little to no effect”, the “Inhibition of activation of human and rat TEM cells” value (human and rat TEM cells) is given as “preferentially inhibits” and the “Detection of ShK-235 in the circulation” value [1] is given as “detected”.

— patent publication US20250213627A1, “RECOMBINANT MICROORGANISM-BASED METHODS AND COMPOSITIONS FOR TREATMENT OF DISEASE” (Baylor College of Medicine, priority 2021, published 2025)
